One series is described as follows: log pow. The conditions noted are these: octanol/water. It is filed as physicochemical.
Series [1] in a line: glass temperature of the compound. The class given is physicochemical.
Series [2] can be described thus: hydrolytic stability (t½) at 20° C. The class given is physicochemical. The note with it: buffer.
A short description of series [3]: physical stability (t½ induction) at 40° C./75% RH. The class given is physicochemical.
A short description of another series: water solubility (glass). The class given is physicochemical.

For `CC(=O)OC1C(O[C@@H]2OC(COC(=O)C3O[C@H](OC(C)=O)C(OC(C)=O)C(OC(C)=O)[C@@H]3OC(C)=O)[C@@H](OC(C)=O)C(OC(C)=O)C2OC(C)=O)OC(COC(=O)C2O[C@H](OC(C)=O)C(OC(C)=O)C(OC(C)=O)[C@H]2OC(C)=O)[C@@H](OC(C)=O)C1OC(C)=O` (stereo partly drawn) [Example 1, di(β-tetraacetylglucuronyl)hexaacetyltrehalose], the melting point was 156 °C. Further, the logP in the series “log pow” turned out to be 2.9. In addition, in series [1], the glass temperature was 110 °C. This compound gave a half-life in series [2] (pH 4) of 12 h. Moreover, the half-life in series [2] (pH 7) is 14 h. For the same compound, in series [2] (pH 9), the half-life was less than 1 h. Further, the “physical stability (t½ induction)” value in series [3] is recorded as greater than 1176 h. Further, the “water solubility (glass)” value in the series “water solubility (glass)” is 9.5 ppm.

Source of the values: patent publication US7220731B2, “Derivatised carbohydrates and their use in solid delivery systems” (Elan Drug Delivery Limited, priority 2000, dated 2007).
